Literature values in patent US20150139938A1, “Methods and Compositions for Improving Pial Collateral Circulation and Treating Blood Clotting Disorders” (Ohio State Innovation Foundation, priority 2012, published 2015).

Test system: stroke-induced lesion in the brain of spontaneously hypertensive rats
Conditions: orally supplemented, earlier work of the inventors

## CC(C)=CCC/C(C)=C/CC/C(C)=C/CC[C@]1(C)CCc2c(C)c(O)c(C)c(C)c2O1 [αTCT, α-tocotrienol]
  protection against stroke-induced lesion in the brain: protects
